Legend:
CES in HepG2 cells = assay: CES activity on pNPA, HepG2 cells
[1] = test system: human cell lines (Caco-2, HepG2, T84, A498); assay: cells; format: in vitro ADME; settings: read-out: % inhibition of deacetylation of 3/15ADON
CES in S9 Liver = assay: CES activity on pNPA, liver S9 fraction
CES in S9 Intestine = assay: CES activity on pNPA, intestine S9 fraction
CES in T84 cells = assay: CES activity on pNPA, T84 cells
CES in A498 cells = assay: CES activity on pNPA, A498 cells
recombinant human CES1 = molecular target: T1, recombinant human CES1 (Homo sapiens, UniProt P23141); assay: CES activity on pNPA, recombinant CES1
T1 sequence (P23141 18-567): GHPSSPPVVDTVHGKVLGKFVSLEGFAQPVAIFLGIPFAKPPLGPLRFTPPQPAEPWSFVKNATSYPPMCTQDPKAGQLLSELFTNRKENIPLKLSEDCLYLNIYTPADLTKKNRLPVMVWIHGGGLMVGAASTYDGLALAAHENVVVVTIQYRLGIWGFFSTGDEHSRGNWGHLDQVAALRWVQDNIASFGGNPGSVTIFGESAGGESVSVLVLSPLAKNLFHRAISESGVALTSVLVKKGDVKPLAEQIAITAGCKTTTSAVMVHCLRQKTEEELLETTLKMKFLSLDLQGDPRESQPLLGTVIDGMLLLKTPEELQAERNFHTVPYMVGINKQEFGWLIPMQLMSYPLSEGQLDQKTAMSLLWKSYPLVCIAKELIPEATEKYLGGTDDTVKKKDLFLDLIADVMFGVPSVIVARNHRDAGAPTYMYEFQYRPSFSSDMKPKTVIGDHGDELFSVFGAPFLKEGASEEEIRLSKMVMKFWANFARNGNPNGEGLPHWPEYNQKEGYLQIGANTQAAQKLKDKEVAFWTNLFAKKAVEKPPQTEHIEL

CES in S9 Kidney = assay: CES activity on pNPA, kidney S9 fraction
CES in Caco-2 cells = assay: CES activity on pNPA, Caco-2 cells
recombinant human CES2 = molecular target: T2, recombinant human CES2 (Homo sapiens, UniProt O00748); assay: CES activity on pNPA, recombinant CES2; settings: CES2, pNPA 1 mM
T2 sequence (O00748 27-559): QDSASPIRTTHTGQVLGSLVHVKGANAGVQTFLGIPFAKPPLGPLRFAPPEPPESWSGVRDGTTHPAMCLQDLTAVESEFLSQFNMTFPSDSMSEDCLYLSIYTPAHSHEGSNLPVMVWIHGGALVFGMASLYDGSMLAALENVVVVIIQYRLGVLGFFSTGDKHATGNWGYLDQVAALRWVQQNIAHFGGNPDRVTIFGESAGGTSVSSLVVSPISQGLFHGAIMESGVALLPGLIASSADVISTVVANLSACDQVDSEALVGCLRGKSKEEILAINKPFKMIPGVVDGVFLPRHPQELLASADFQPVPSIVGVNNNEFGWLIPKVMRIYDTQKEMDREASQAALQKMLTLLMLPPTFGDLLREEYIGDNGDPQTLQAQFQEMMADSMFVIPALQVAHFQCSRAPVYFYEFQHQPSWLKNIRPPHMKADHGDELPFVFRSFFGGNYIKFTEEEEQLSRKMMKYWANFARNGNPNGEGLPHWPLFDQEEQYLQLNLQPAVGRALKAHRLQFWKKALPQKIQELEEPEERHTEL

`O=C(C(=O)c1ccccc1)c1ccccc1` [benzil] was tested, and the “% of Inhibition of pNPA deacetylation” value (CES in HepG2 cells; HepG2, benzil 100 μM) was 87 ± 12%, the inhibition at 100 µM [1] was 10 to 20% and the “% of Inhibition of pNPA deacetylation” value (CES in S9 Liver; benzil 100 μM) was 85 ± 14%. The “% of Inhibition of pNPA deacetylation” value (CES in S9 Intestine; benzil 100 μM) was 84 ± 15%, the “% of Inhibition of pNPA deacetylation” value (CES in T84 cells; T84, benzil 100 μM) was 85 ± 14% and the “% of Inhibition of pNPA deacetylation” value (CES in A498 cells; A498, benzil 100 μM) was 83 ± 16%. The inhibition at 100 µM (recombinant human CES1; read-out: % of Inhibition of pNPA deacetylation) was 96 ± 3.3%, the “% of Inhibition of pNPA deacetylation” value (CES in S9 Kidney; benzil 100 μM) was 88 ± 11% and the “% of Inhibition of pNPA deacetylation” value (CES in Caco-2 cells; Caco-2, benzil 100 μM) was 83 ± 16%.
For `CC(=O)Oc1ccc([N+](=O)[O-])cc1` [pNPA, para-nitrophenyl acetate], the “Specific activity on pNPA, Without Benzil” value (CES in HepG2 cells; HepG2, pNPA 1 mM, 37 °C) was 15.7 ± 1.1 nmol of pNPA hydrolyzed per minute and per mg of protein, the “Specific activity on pNPA, With Benzil” value (CES in HepG2 cells; HepG2, pNPA 1 mM, benzil 100 μM) was 2.1 ± 0.1 nmol of pNPA hydrolyzed per minute and per mg of protein and the “Specific activity on pNPA, Without Benzil” value (CES in S9 Liver; pNPA 1 mM, 37 °C) was 142 ± 4.6 nmol of pNPA hydrolyzed per minute and per mg of protein. For the same compound, the “Specific activity on pNPA, With Benzil” value (CES in S9 Liver; pNPA 1 mM, benzil 100 μM) was 21 ± 2.2 nmol of pNPA hydrolyzed per minute and per mg of protein, the “Specific activity on pNPA, Without Benzil” value (CES in S9 Intestine; pNPA 1 mM, 37 °C) was 55 ± 9.9 nmol of pNPA hydrolyzed per minute and per mg of protein and the “Specific activity on pNPA, With Benzil” value (CES in S9 Intestine; pNPA 1 mM, benzil 100 μM) was 8.3 ± 2.7 nmol of pNPA hydrolyzed per minute and per mg of protein. The “Specific activity on pNPA, Without Benzil” value (CES in T84 cells; T84, pNPA 1 mM, 37 °C) was 6.6 ± 0.7 nmol of pNPA hydrolyzed per minute and per mg of protein, the “Specific activity on pNPA, With Benzil” value (CES in T84 cells; T84, pNPA 1 mM, benzil 100 μM) was 0.9 ± 0.2 nmol of pNPA hydrolyzed per minute and per mg of protein and the “Specific activity on pNPA, With Benzil” value (CES in A498 cells; A498, pNPA 1 mM, benzil 100 μM) was 1.1 ± 0.1 nmol of pNPA hydrolyzed per minute and per mg of protein. The “Specific activity on pNPA, Without Benzil” value (recombinant human CES1; CES1, pNPA 1 mM, 37 °C) was 4965 ± 197 nmol of pNPA hydrolyzed per minute and per mg of protein, the “Specific activity on pNPA, With Benzil” value (recombinant human CES1; CES1, pNPA 1 mM, benzil 100 μM) was 167 ± 10 nmol of pNPA hydrolyzed per minute and per mg of protein and the “Specific activity on pNPA, Without Benzil” value (CES in S9 Kidney; pNPA 1 mM, 37 °C) was 69 ± 7.6 nmol of pNPA hydrolyzed per minute and per mg of protein. The “Specific activity on pNPA, With Benzil” value (CES in S9 Kidney; pNPA 1 mM, benzil 100 μM) was 8.1 ± 1.4 nmol of pNPA hydrolyzed per minute and per mg of protein, the “Specific activity on pNPA, Without Benzil” value (recombinant human CES2; 37 °C) was 5671 ± 207 nmol of pNPA hydrolyzed per minute and per mg of protein and the “Specific activity on pNPA, With Benzil” value (recombinant human CES2; benzil 100 μM) was 214 ± 43 nmol of pNPA hydrolyzed per minute and per mg of protein. The “Specific activity on pNPA, Without Benzil” value (CES in Caco-2 cells; Caco-2, pNPA 1 mM, 37 °C) was 6.2 ± 1.8 nmol of pNPA hydrolyzed per minute and per mg of protein and the “Specific activity on pNPA, With Benzil” value (CES in Caco-2 cells; Caco-2, pNPA 1 mM, benzil 100 μM) was 1.1 ± 0.1 nmol of pNPA hydrolyzed per minute and per mg of protein.

Source: paper PMC4999848 (Toxins, 2016)
